Results from PubChem BioAssay (NCI).
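Where inhibition never reached the appropriate level, the endpoint shown equals the highest concentration tested. Otherwise, values were interpolated linearly from a five-concentration, 48-hour dose response in 96-well plates. TGI: concentration producing complete growth inhibition.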

Key:
Experiment in all cases: NCI-60 cell line screen, 48 h
RPMI-8226 leukemia = tested on: RPMI-8226 leukemia
786-0 renal = tested on: 786-0 renal
SK-MEL-5 melanoma = tested on: SK-MEL-5 melanoma
CAKI-1 renal = tested on: CAKI-1 renal
OVCAR-8 ovarian = tested on: OVCAR-8 ovarian
HCT-15 colon = tested on: HCT-15 colon
SR leukemia = tested on: SR leukemia
IGROV1 ovarian = tested on: IGROV1 ovarian
T-47D breast = tested on: T-47D breast
SF-268 CNS = tested on: SF-268 CNS
A549 NSCLC = tested on: A549 NSCLC
A498 renal = tested on: A498 renal
MDA-MB-435 = tested on: MDA-MB-435
EKVX NSCLC = tested on: EKVX NSCLC
K-562 leukemia = tested on: K-562 leukemia
UO-31 renal = tested on: UO-31 renal
MOLT-4 leukemia = tested on: MOLT-4 leukemia
SK-MEL-2 melanoma = tested on: SK-MEL-2 melanoma
UACC-62 melanoma = tested on: UACC-62 melanoma
HT29 colon = tested on: HT29 colon
SNB-75 CNS = tested on: SNB-75 CNS
OVCAR-3 ovarian = tested on: OVCAR-3 ovarian
CCRF-CEM leukemia = tested on: CCRF-CEM leukemia
UACC-257 melanoma = tested on: UACC-257 melanoma
NCI-H226 lung = tested on: NCI-H226 lung
PC-3 prostate = tested on: PC-3 prostate
BT-549 breast = tested on: BT-549 breast
TK-10 renal = tested on: TK-10 renal
COLO 205 colon = tested on: COLO 205 colon
SK-OV-3 ovarian = tested on: SK-OV-3 ovarian
RXF 393 renal = tested on: RXF 393 renal
MALME-3M melanoma = tested on: MALME-3M melanoma
HCC-2998 colon = tested on: HCC-2998 colon
HOP-92 NSCLC = tested on: HOP-92 NSCLC
SF-295 CNS = tested on: SF-295 CNS
HOP-62 NSCLC = tested on: HOP-62 NSCLC
SNB-19 CNS = tested on: SNB-19 CNS
NCI/ADR-RES ovarian = tested on: NCI/ADR-RES ovarian
SW-620 colon = tested on: SW-620 colon
NCI-H460 lung = tested on: NCI-H460 lung
M14 melanoma = tested on: M14 melanoma
NCI-H23 lung = tested on: NCI-H23 lung
OVCAR-4 ovarian = tested on: OVCAR-4 ovarian
U251 CNS = tested on: U251 CNS
MDA-MB-231 breast = tested on: MDA-MB-231 breast
DU-145 prostate = tested on: DU-145 prostate
HS 578T breast = tested on: HS 578T breast
OVCAR-5 ovarian = tested on: OVCAR-5 ovarian
SK-MEL-28 melanoma = tested on: SK-MEL-28 melanoma
ACHN renal = tested on: ACHN renal
KM12 colon = tested on: KM12 colon
SN12C renal = tested on: SN12C renal
MCF7 breast = tested on: MCF7 breast
HCT-116 colon = tested on: HCT-116 colon

Measured: TGI

COc1ccc2[nH]c(C(O)(Cc3cccnc3)Cc3cccnc3)cc2c1
> 100 µM: all assays above
